Source: BindingDB's records for doi:10.7270/Q2V986FT (Emory University, 2007)

target: T1, 14-3-3 protein gamma (Homo sapiens, UniProt P61981); experiment: modulators of 14-3-3 gamma client binding – dose response (AID 711)
T1 sequence (P61981 whole entry): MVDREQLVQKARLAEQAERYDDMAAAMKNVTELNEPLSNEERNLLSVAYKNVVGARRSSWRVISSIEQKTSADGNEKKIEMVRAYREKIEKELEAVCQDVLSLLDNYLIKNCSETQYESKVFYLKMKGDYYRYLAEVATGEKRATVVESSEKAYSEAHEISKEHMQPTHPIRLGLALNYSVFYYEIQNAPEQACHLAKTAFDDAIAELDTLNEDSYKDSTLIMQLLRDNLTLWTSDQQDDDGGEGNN

| IC50 [µM] | SMILES |
| --- | --- |
| 3.15 | CC1=NC(c2ccccc2)C(C#N)(C#N)C(C#N)(C#N)C1 (stereo not drawn) [SMR000037705] |
| > 50 | Cc1ccc(C2C3CN(C(C)C)CCC3=C(C#N)C(=N)C2(C#N)C#N)cc1 (stereo not drawn) [SMR000034220] |
| > 50 | CC(N=O)C(=O)NCc1ccccn1 (stereo not drawn) [(2E)-2-(hydroxyimino)-N-(pyridin-2-ylmethyl)propanamide] |
